In US7678918B2, “Intermediates for imidazonaphthyridines” (3M Innovative Properties Company, priority 1997, dated 2010):

How the values were obtained:
[1] = tested on: IFN; experiment: Cytokine Induction in Human Cells: interferon (IFN) secreted by PBMCs, A549/encephalomyocarditis bioassay; format: cell-based; details: 18 to 24 hours
Text: (§1) An in vitro human blood cell system was used to assess cytokine induction by compounds of the invention. Activity is based on the measurement of interferon and tumor necrosis factor (ℑ) (IFN and TNF, respectively) secreted into culture media as described by Testerman et. al. In “Cytokine Induction by the Immunomodulators Imiquimod and S-27609”, Journal of Leukocyte Biology, 58, 365-372 (September, 1995). Blood Cell Preparation for Culture
(§2) Whole blood is collected by venipuncture into EDTA vacutainer tubes from healthy human donors. Peripheral blood mononuclear cells (PBMCs) are separated from whole blood by Histopaque®-1077 (Sigma Chemicals, St. Louis, Mo.) density gradient centrifugation. The PBMCs are suspended at 1.5-2×10^6 cells/mL in RPMI 1640 medium containing 10% fetal bovine serum, 2 mM L-glutamine and 1% penicillin/streptomycin solution (RPMI complete). 1 mL portions of PBMC suspension are added to 24 well flat bottom sterile tissue culture plates.
(§3) The compounds are solubilized in dimethyl sulfoxide (DMSO). The DMSO concentration should not exceed a final concentration of 1% for addition to the culture wells. The compounds are generally tested in a concentration range of from 0.1 to 100 μM.
(§4) The solution of test compound is added to the wells containing 1 mL of PBMCs in media. The plates are covered with plastic lids, mixed gently and then incubated for 18 to 24 hours at 37° C. with a 5% carbon dioxide atmosphere.
(§5) Following incubation the plates are centrifuged for 5-10 minutes at 1000 rpm (˜200×g) at 4° C. The cell culture supernatant is removed with a sterile polypropylene pipet and transferred to a 2 mL sterile cryotube. Samples are maintained at −70° C. until analysis.
Interferon is determined by bioassay using A549 human lung carcinoma cells challenged with encephalomyocarditis. The details of the bioassay method have been described by G. L. Brennan and L. H. Kronenberg in “Automated Bioassay of Interferons in Micro-test Plates”, Biotechniques, June/July 78, 1983, incorporated herein by reference. Briefly stated the method is as follows: A549 cells are incubated with samples and standard interferon dilutions at 37° C. for 24 hours. The incubated cells are then infected with an inoculum of encephalomyocarditis virus. The infected cells are incubated for an additional 24 hours at 37° C. before quantifying for viral cytopathic effect. The viral cytopathic effect is quantified by staining followed by visual scoring of the plates. Results are expressed as alpha reference units/mL based on the value obtained for NIH Human Leukocyte IFN standard.

[2] = tested on: TNF; experiment: Cytokine Induction in Human Cells: tumor necrosis factor (TNF) secreted by PBMCs, ELISA; format: cell-based; details: 18 to 24 hours
Text: as §1, §2, §3, §4, §5
Tumor necrosis factor (ℑ) (TNF) concentration is determined using an ELISA kit available from Genzyme, Cambridge, Mass. The results are expressed as pg/mL.
Further: call rule not given here.

Structure (SMILES)	IFN induction ([1]; Dose Concentration 0.1 μM)	IFN induction ([1]; Dose Concentration 1.0 μM)	IFN induction ([1]; Dose Concentration 10.0 μM)	IFN induction ([1]; Dose Concentration 100.0 μM)	TNF induction ([2]; Dose Concentration 0.1 μM)	TNF induction ([2]; Dose Concentration 1.0 μM)	TNF induction ([2]; Dose Concentration 10.0 μM)	TNF induction ([2]; Dose Concentration 100.0 μM)
CCCCc1nc2c(N)nc3cccnc3c2n1CCCCNC(=O)NCc1ccccc1 [Example 53, N-[4-(4-Amino-2-butyl-1H-imidazo[4,5-c][1,5]naphthyridin-1-yl)butyl]-N′-benzylurea]	+	+	+	+	−	+	+	−
CCCCc1nc2c(N)nc3cccnc3c2n1CCCCNC(=O)CCCCCCCCC(=O)OC [Example 158]	−	+	+	+	−	−	+	−
CCCCc1nc2c(N)nc3cccnc3c2n1CCCCNC(=O)OCc1ccccc1 [Example 56, Benzyl N-[4-(4-Amino-2-butyl-1H-imidazo[4,5-c][1,5]naphthyridin-1-yl)butyl]carbamate]	−	+	+	−	−	−	+	−
CCCCc1nc2c(N)nc3cccnc3c2n1CCCCNC(=O)Oc1ccccc1 [Example 50, Phenyl N-[4-(4-Amino-2-butyl-1H-imidazo[4,5-c][1,5]naphthyridin-1-yl)butyl]carbamate]		+	+	−		+	+	−
CCCCc1nc2c(N)nc3cccnc3c2n1CCNC(=O)c1ccc(C#N)cc1 [Example 139]		+	+	+		−	+	+
CCCCc1nc2c(N)nc3cccnc3c2n1CCNC(=O)CCC(=O)c1cccs1 [Example 212]	−	+	+	+	−	+	+	+
CCCCc1nc2c(N)nc3cccnc3c2n1CCCCNC(=O)OCC1c2ccccc2-c2ccccc21 [Example 57, 9H-9-Fluorenylmethyl N-[4-(4-Amino-2-butyl-1H-imidazo[4,5-c][1,5]naphthyridin-1-yl)butyl]carbamate]	−	+	+	+	−	−	+	+
CCCCc1nc2c(N)nc3cccnc3c2n1CCNC(=O)CCC1CCCC1 [Example 138]		+	+	+		+	+	+
CCCCc1nc2c(N)nc3cccnc3c2n1CCNC(=O)CCn1cc([N+](=O)[O-])nc1C [Example 209]	−	−	+	+	−	−	+	+
CCCCc1nc2c(N)nc3cccnc3c2n1CCCCNC(=O)CC1CCCC1 [Example 160]	+	+	+	−	−	+	+	−
CCCCc1nc2c(N)nc3cccnc3c2n1CCNC(=O)COCc1ccccc1 [Example 121]		+	+	+		+	+	+
CCCCCCCOc1ccc(C(=O)NCCCCn2c(CCCC)nc3c(N)nc4cccnc4c32)cc1 [Example 190]	+	+	+	−	−	+	+	−
CCCCc1nc2c(N)nc3cccnc3c2n1CCCCNC(=O)c1cccnc1Cl [Example 183]	−	−	−	−	− and +	− and +	− and +	−
CCCCc1nc2c(N)nc3cccnc3c2n1CCNC(=O)C(N)CC(C)C (stereo not drawn) [Example 102, N^1-[2-(4-Amino-2-butyl-1H-imidazo[4,5-c][1,5]naphthyridin-1-yl)ethyl]-2-amino-4-methylpentanamide]	+	+	+	+	+	+	+	+
CCCCc1nc2c(N)nc3cccnc3c2n1CCNC(=O)c1cccnc1Cl [Example 147]	−	+	+	+	−	−	+	+
CCCCc1nc2c(N)nc3cccnc3c2n1CCCCNC(=O)c1ccccc1OC [Example 188]	+	+	+	−	−	+	+	−
CCCCc1nc2c(N)nc3cccnc3c2n1CCCCNC(=O)c1ccc(N2CCOCC2)nc1 [Example 106, N^1-[4(4-Amino-2-butyl-1H-imidazo[4,5-c][1,5]naphthyridin-1-yl)butyl]-6-morpholinonicotinamide]	+	+	+	−	−	+	+	−
CCCCc1nc2c(N)nc3cccnc3c2n1CCCCNC(=O)C1CC1 [Example 173]	+	+	+	+	−	+	+	+
CCCCc1nc2c(N)nc3cccnc3c2n1CCNC(=O)CCN1C(=O)c2ccccc2C1=O [Example 211]	−	−	+	+	−	−	+	+
CCCCc1nc2c(N)nc3cccnc3c2n1CCNC(=O)C1C2CC3C(C2=O)C31 (stereo not drawn) [Example 198]	−	−	+	+	−	+	+	+
CCCCc1nc2c(N)nc3cccnc3c2n1CCCCNC(=O)CCCCn1cnc2c1c(=O)n(C)c(=O)n2C [Example 105, N^1-[4-(4-Amino-2-butyl-1H-imidazo[4,5-c][1,5]naphthyridin-1-yl)butyl]-5-(1,3-dimethyl-2,6-oxo-2,3,6,7-tetrahydro-1H-purinyl)pentamide]	+	+	+	+	−	−	+	+
CCCCc1nc2c(N)nc3cccnc3c2n1CCNS(=O)(=O)c1ccccc1 [Example 117, N^1-[4-(4-Amino-2-butyl-1H-imidazo[4,5-c][1,5]naphthyridin-1-yl)ethyl]benzenesulfonamide]	−	−	+	+	−	−	+	+
